Starred links: 1 amine or outer side, 2 acyl side, 3 side chain; linkers in the order of their positions; H or OH if unused. Non-standard residues stand in square brackets, D forms with d. Residues, ends and D or L forms follow the SMILES beside them. Groups on a side chain read outwards from the residue. *: point of attachment. C18 diacid = O=C(O)CCCCCCCCCCCCCCCCC(=O)*; C17 diacid = O=C(O)CCCCCCCCCCCCCCCC(=O)*; γGlu = O=C(O)[C@H](CCC(=O)[*:2])N[*:1]; NMeY = CN[C@@H](Cc1ccc(O)cc1)C(=O)O; AEEA = NCCOCCOCC(=O)O; Aib = CC(C)(N)C(=O)O
Assay: physchem
Method in brief: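 Solubility at pH 7.4 determined by stepwise addition of 200 mM phosphate buffer in 100 μL increments to 3 mg peptide, mixing briefly each time, until no insoluble material remained, then measured by liquid chromatography.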

SMILES | solubility (pH 7.4, aqueous buffer) [mg/mL] | solubility (pH 7.4) [mg/mL]
CC[C@H](C)[C@H](NC(=O)[C@H](CO)NC(=O)[C@H](Cc1ccc(O)cc1)NC(=O)[C@H](CC(=O)O)NC(=O)[C@H](CO)NC(=O)[C@@H](NC(=O)[C@H](Cc1ccccc1)NC(=O)[C@@H](NC(=O)CNC(=O)[C@H](CCC(=O)O)NC(=O)C(C)(C)NC(=O)[C@H](Cc1ccc(O)cc1)NC)[C@@H](C)O)[C@@H](C)CC)C(=O)N[C@@H](C)C(=O)N[C@@H](CCCCNC(=O)COCCOCCNC(=O)COCCOCCNC(=O)CC[C@H](NC(=O)CCCCCCCCCCCCCCCCC(=O)O)C(=O)O)C(=O)N[C@@H](CC(=O)O)C(=O)N[C@@H](CCCNC(=N)N)C(=O)NC(C)(C)C(=O)N[C@@H](C)C(=O)N[C@@H](CCC(N)=O)C(=O)NC(C)(C)C(=O)N[C@@H](CC(N)=O)C(=O)N[C@@H](Cc1ccccc1)C(=O)N[C@H](C(=O)N[C@@H](CC(N)=O)C(=O)N[C@@H](Cc1c[nH]c2ccccc12)C(=O)N[C@@H](CC(C)C)C(=O)N[C@@H](CC(C)C)C(=O)N[C@@H](C)C(=O)N[C@@H](CCC(N)=O)C(=O)N[C@@H](CCCCN)C(N)=O)C(C)C [Compound 6] (H-[NMeY][Aib]EGTFISDYSIAK([AEEA-AEEA-γGlu-C18 diacid])DR[Aib]AQ[Aib]NFVNWLLAQK-NH2) | ≥ 15 | –
CC[C@H](C)[C@H](NC(=O)[C@H](CO)NC(=O)[C@H](Cc1ccc(O)cc1)NC(=O)[C@H](CC(=O)O)NC(=O)[C@H](CO)NC(=O)[C@@H](NC(=O)[C@H](Cc1ccccc1)NC(=O)[C@@H](NC(=O)CNC(=O)[C@H](CCC(=O)O)NC(=O)C(C)(C)NC(=O)[C@@H](N)Cc1ccc(O)cc1)[C@@H](C)O)[C@@H](C)CC)C(=O)N[C@@H](C)C(=O)N[C@@H](CC(C)C)C(=O)N[C@@H](CC(=O)O)C(=O)N[C@@H](CCCCN)C(=O)NC(C)(C)C(=O)N[C@@H](CCCCNC(=O)COCCOCCNC(=O)COCCOCCNC(=O)CC[C@H](NC(=O)CCCCCCCCCCCCCCCCC(=O)O)C(=O)O)C(=O)N[C@@H](CCC(N)=O)C(=O)N[C@@H](C)C(=O)N[C@@H](CC(N)=O)C(=O)N[C@@H](Cc1ccccc1)C(=O)N[C@H](C(=O)N[C@@H](CCC(=O)O)C(=O)N[C@@H](Cc1c[nH]c2ccccc12)C(=O)N[C@@H](CC(C)C)C(=O)N[C@@H](CC(C)C)C(=O)N[C@@H](C)C(=O)N[C@@H](CCC(N)=O)C(=O)N[C@@H](CCCNC(=N)N)C(=O)NCC(=O)O)C(C)C [Compound 163] (H-Y[Aib]EGTFISDYSIALDK[Aib]K([AEEA-AEEA-γGlu-C18 diacid])QANFVEWLLAQRG-OH) | ≥ 30 | ≥ 15
CC[C@H](C)[C@H](NC(=O)[C@H](CO)NC(=O)[C@H](Cc1ccc(O)cc1)NC(=O)[C@H](CC(=O)O)NC(=O)[C@H](CO)NC(=O)[C@@H](NC(=O)[C@H](Cc1ccccc1)NC(=O)[C@@H](NC(=O)CNC(=O)[C@H](CCC(=O)O)NC(=O)C(C)(C)NC(=O)[C@H](Cc1ccc(O)cc1)NC)[C@@H](C)O)[C@@H](C)CC)C(=O)N[C@@H](C)C(=O)N[C@@H](CC(C)C)C(=O)N[C@@H](CC(=O)O)C(=O)N[C@@H](CCCNC(=N)N)C(=O)NC(C)(C)C(=O)N[C@@H](C)C(=O)N[C@@H](CCC(N)=O)C(=O)NC(C)(C)C(=O)N[C@@H](CCCCNC(=O)COCCOCCNC(=O)COCCOCCNC(=O)CC[C@H](NC(=O)CC[C@H](NC(=O)CCCCCCCCCCCCCCCC(=O)O)C(=O)O)C(=O)O)C(=O)N[C@@H](Cc1ccccc1)C(=O)N[C@H](C(=O)N[C@@H](CC(N)=O)C(=O)N[C@@H](Cc1c[nH]c2ccccc12)C(=O)N[C@@H](CC(C)C)C(=O)N[C@@H](CC(C)C)C(=O)N[C@@H](C)C(=O)N[C@@H](CCC(N)=O)C(=O)N[C@@H](CCCNC(=N)N)C(=O)NCC(=O)NCC(=O)NCC(=O)NCC(=O)N[C@@H](CO)C(N)=O)C(C)C [Compound 30] (H-[NMeY][Aib]EGTFISDYSIALDR[Aib]AQ[Aib]K([AEEA-AEEA-γGlu-γGlu-C17 diacid])FVNWLLAQRGGGGS-NH2) | ≥ 30 | ≥ 15
CC[C@H](C)[C@H](NC(=O)[C@H](CCCCN)NC(=O)[C@H](CC(=O)O)NC(=O)[C@H](CC(C)C)NC(=O)[C@H](C)NC(=O)[C@@H](NC(=O)[C@H](CO)NC(=O)[C@H](Cc1ccc(O)cc1)NC(=O)[C@H](CC(=O)O)NC(=O)[C@H](CO)NC(=O)[C@@H](NC(=O)[C@H](Cc1ccccc1)NC(=O)[C@@H](NC(=O)CNC(=O)[C@H](CCC(=O)O)NC(=O)C(C)(C)NC(=O)[C@@H](N)Cc1ccc(O)cc1)[C@@H](C)O)[C@@H](C)CC)[C@@H](C)CC)C(=O)N[C@@H](C)C(=O)N[C@@H](CCC(N)=O)C(=O)N[C@@H](CCC(N)=O)C(=O)N[C@@H](CCCCNC(=O)COCCOCCNC(=O)COCCOCCNC(=O)CC[C@H](NC(=O)CC[C@H](NC(=O)CCCCCCCCCCCCCCCC(=O)O)C(=O)O)C(=O)O)C(=O)N[C@@H](Cc1ccccc1)C(=O)N[C@H](C(=O)N[C@@H](CCC(=O)O)C(=O)N[C@@H](Cc1c[nH]c2ccccc12)C(=O)N[C@@H](CC(C)C)C(=O)N[C@@H](CC(C)C)C(=O)N[C@@H](C)C(=O)N[C@@H](CCC(N)=O)C(=O)N[C@@H](CCCNC(=N)N)C(=O)NCC(=O)O)C(C)C [Compound 142] (H-Y[Aib]EGTFISDYSIALDKIAQQK([AEEA-AEEA-γGlu-γGlu-C17 diacid])FVEWLLAQRG-OH) | ≥ 30 | ≥ 15
CC[C@H](C)[C@H](NC(=O)[C@H](CO)NC(=O)[C@H](Cc1ccc(O)cc1)NC(=O)[C@H](CC(=O)O)NC(=O)[C@H](CO)NC(=O)[C@@H](NC(=O)[C@H](Cc1ccccc1)NC(=O)[C@@H](NC(=O)CNC(=O)[C@H](CCC(=O)O)NC(=O)C(C)(C)NC(=O)[C@H](Cc1ccc(O)cc1)NC)[C@@H](C)O)[C@@H](C)CC)C(=O)N[C@@H](C)C(=O)N[C@@H](CC(C)C)C(=O)N[C@@H](CC(=O)O)C(=O)N[C@@H](CCCNC(=N)N)C(=O)NC(C)(C)C(=O)N[C@@H](C)C(=O)N[C@@H](CCC(N)=O)C(=O)NC(C)(C)C(=O)N[C@@H](CC(=O)O)C(=O)N[C@@H](Cc1ccccc1)C(=O)N[C@H](C(=O)N[C@@H](CC(N)=O)C(=O)N[C@@H](Cc1c[nH]c2ccccc12)C(=O)N[C@@H](CC(C)C)C(=O)N[C@@H](CC(C)C)C(=O)N[C@@H](C)C(=O)N[C@@H](CCC(N)=O)C(=O)N[C@@H](CCCCNC(=O)COCCOCCNC(=O)COCCOCCNC(=O)CC[C@H](NC(=O)CC[C@H](NC(=O)CCCCCCCCCCCCCCCCC(=O)O)C(=O)O)C(=O)O)C(=O)NCC(=O)O)C(C)C [Compound 61] (H-[NMeY][Aib]EGTFISDYSIALDR[Aib]AQ[Aib]DFVNWLLAQK([AEEA-AEEA-γGlu-γGlu-C18 diacid])G-OH) | ≥ 30 | ≥ 15
CC[C@H](C)[C@H](NC(=O)[C@H](CO)NC(=O)[C@H](Cc1ccc(O)cc1)NC(=O)[C@H](CC(=O)O)NC(=O)[C@H](CO)NC(=O)[C@@H](NC(=O)[C@H](Cc1ccccc1)NC(=O)[C@@H](NC(=O)CNC(=O)[C@H](CCC(=O)O)NC(=O)C(C)(C)NC(=O)[C@H](Cc1ccc(O)cc1)NC)[C@@H](C)O)[C@@H](C)CC)C(=O)N[C@@H](C)C(=O)N[C@@H](CCCCNC(=O)COCCOCCNC(=O)COCCOCCNC(=O)CC[C@H](NC(=O)CCCCCCCCCCCCCCCC(=O)O)C(=O)O)C(=O)N[C@@H](CC(=O)O)C(=O)N[C@@H](CCCNC(=N)N)C(=O)NC(C)(C)C(=O)N[C@@H](C)C(=O)N[C@@H](CCC(N)=O)C(=O)NC(C)(C)C(=O)N[C@@H](CC(N)=O)C(=O)N[C@@H](Cc1ccccc1)C(=O)N[C@H](C(=O)N[C@@H](CC(N)=O)C(=O)N[C@@H](Cc1c[nH]c2ccccc12)C(=O)N[C@@H](CC(C)C)C(=O)N[C@@H](CC(C)C)C(=O)N[C@@H](C)C(=O)N[C@@H](CCC(N)=O)C(=O)N[C@@H](CCCCN)C(=O)O)C(C)C [Compound 255] (H-[NMeY][Aib]EGTFISDYSIAK([AEEA-AEEA-γGlu-C17 diacid])DR[Aib]AQ[Aib]NFVNWLLAQK-OH; C-terminus assumed) | ≥ 10 | –
CC[C@H](C)[C@H](NC(=O)[C@H](CO)NC(=O)[C@H](Cc1ccc(O)cc1)NC(=O)[C@H](CC(=O)O)NC(=O)[C@H](CO)NC(=O)[C@@H](NC(=O)[C@H](Cc1ccccc1)NC(=O)[C@@H](NC(=O)CNC(=O)[C@H](CCC(=O)O)NC(=O)C(C)(C)NC(=O)[C@@H](N)Cc1ccc(O)cc1)[C@@H](C)O)[C@@H](C)CC)C(=O)N[C@@H](C)C(=O)N[C@@H](CC(C)C)C(=O)N[C@@H](CC(=O)O)C(=O)N[C@@H](CCCNC(=N)N)C(=O)NC(C)(C)C(=O)N[C@@H](C)C(=O)N[C@@H](CCC(N)=O)C(=O)NC(C)(C)C(=O)N[C@@H](CCCCNC(=O)COCCOCCNC(=O)COCCOCCNC(=O)CC[C@H](NC(=O)CC[C@H](NC(=O)CCCCCCCCCCCCCCCC(=O)O)C(=O)O)C(=O)O)C(=O)N[C@@H](Cc1ccccc1)C(=O)N[C@H](C(=O)N[C@@H](CC(N)=O)C(=O)N[C@@H](Cc1c[nH]c2ccccc12)C(=O)N[C@@H](CC(C)C)C(=O)N[C@@H](CC(C)C)C(=O)N[C@@H](C)C(=O)N[C@@H](CCC(N)=O)C(=O)N[C@@H](CCCNC(=N)N)C(=O)NCC(=O)O)C(C)C [Compound 140] (H-Y[Aib]EGTFISDYSIALDR[Aib]AQ[Aib]K([AEEA-AEEA-γGlu-γGlu-C17 diacid])FVNWLLAQRG-OH) | ≥ 30 | ≥ 15
CC[C@H](C)[C@H](NC(=O)[C@H](CCCCN)NC(=O)[C@H](CC(=O)O)NC(=O)[C@H](CC(C)C)NC(=O)[C@H](C)NC(=O)[C@@H](NC(=O)[C@H](CO)NC(=O)[C@H](Cc1ccc(O)cc1)NC(=O)[C@H](CC(=O)O)NC(=O)[C@H](CO)NC(=O)[C@@H](NC(=O)[C@H](Cc1ccccc1)NC(=O)[C@@H](NC(=O)CNC(=O)[C@H](CCC(=O)O)NC(=O)C(C)(C)NC(=O)[C@@H](N)Cc1ccc(O)cc1)[C@@H](C)O)[C@@H](C)CC)[C@@H](C)CC)C(=O)N[C@@H](C)C(=O)N[C@@H](CCC(N)=O)C(=O)N[C@@H](CCCNC(=N)N)C(=O)N[C@@H](CCCCNC(=O)COCCOCCNC(=O)COCCOCCNC(=O)CC[C@H](NC(=O)CC[C@H](NC(=O)CCCCCCCCCCCCCCCC(=O)O)C(=O)O)C(=O)O)C(=O)N[C@@H](Cc1ccccc1)C(=O)N[C@H](C(=O)N[C@@H](CCC(=O)O)C(=O)N[C@@H](Cc1c[nH]c2ccccc12)C(=O)N[C@@H](CC(C)C)C(=O)N[C@@H](CC(C)C)C(=O)N[C@@H](C)C(=O)N[C@@H](CCC(N)=O)C(=O)N[C@@H](CCCNC(=N)N)C(=O)NCC(=O)O)C(C)C [Compound 143] (H-Y[Aib]EGTFISDYSIALDKIAQRK([AEEA-AEEA-γGlu-γGlu-C17 diacid])FVEWLLAQRG-OH) | ≥ 30 | ≥ 15
